Measured values as given in PubChem BioAssay AID248 (DTP/NCI, 2004).
Values joined by “and” are separate entries in the source; they are usually repeats but may differ in a detail not shown here. Equal entries are not always repeated. Toxic doses and inconclusive results are not listed. Rule as the data show it: active = T/C of 150% or more; inactive = T/C below 125%.

Test system: L1210 leukemia ip in BDF1 mice, survival T/C
Assay: NCI In Vivo Anticancer Drug Screen. Data for tumor model L1210 Leukemia (intraperitoneal) in B6D2F1 (BDF1) mice
Details: endpoint: mean survival time, higher = longer survival
How it was run: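 Survival endpoint. Drug-treated group vs vehicle group, expressed as T divided by C. Tumor passaged by transplantation.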

[1] = dose: 100.0 mg/kg/injection, schedule: Q01DX001 (ip), vehicle: saline
[2] = dose: 200.0 mg/kg/injection, schedule: Q01DX001 (ip), vehicle: saline
[3] = dose: 50.0 mg/kg/injection, schedule: Q01DX001 (ip), vehicle: carboxymethylcellulose (CMC)
[4] = dose: 100.0 mg/kg/injection, schedule: Q01DX001 (ip), vehicle: carboxymethylcellulose (CMC)
[5] = dose: 200.0 mg/kg/injection, schedule: Q01DX001 (ip), vehicle: carboxymethylcellulose (CMC)
[6] = dose: 400.0 mg/kg/injection, schedule: Q01DX001 (ip), vehicle: carboxymethylcellulose (CMC)
[7] = dose: 100.0 mg/kg/injection, schedule: Q01DX009 (ip), vehicle: saline with Tween-80
[8] = dose: 100.0 mg/kg/injection, schedule: Q04DX003 (ip), vehicle: saline with Tween-80
[9] = dose: 200.0 mg/kg/injection, schedule: Q01DX009 (ip), vehicle: saline with Tween-80
[10] = dose: 200.0 mg/kg/injection, schedule: Q04DX003 (ip), vehicle: saline with Tween-80
[11] = dose: 400.0 mg/kg/injection, schedule: Q04DX003 (ip), vehicle: saline with Tween-80
[12] = dose: 75.0 mg/kg/injection, schedule: Q01DX001 (ip), vehicle: saline
[13] = dose: 150.0 mg/kg/injection, schedule: Q01DX001 (ip), vehicle: saline
[14] = dose: 100.0 mg/kg/injection, schedule: Q01DX009 (ip), vehicle: Klucel (hydroxypropylcellulose) (HPC)
[15] = dose: 200.0 mg/kg/injection, schedule: Q01DX009 (ip), vehicle: Klucel (hydroxypropylcellulose) (HPC)
[16] = dose: 100.0 mg/kg/injection, schedule: Q04DX003 (ip), vehicle: Klucel (hydroxypropylcellulose) (HPC)
[17] = dose: 200.0 mg/kg/injection, schedule: Q04DX003 (ip), vehicle: Klucel (hydroxypropylcellulose) (HPC)
[18] = dose: 400.0 mg/kg/injection, schedule: Q01DX009 (ip), vehicle: Klucel (hydroxypropylcellulose) (HPC)
[19] = dose: 400.0 mg/kg/injection, schedule: Q04DX003 (ip), vehicle: Klucel (hydroxypropylcellulose) (HPC)
[20] = dose: 400.0 mg/kg/injection, schedule: Q01DX001 (ip), vehicle: saline

Measured: T/C

CSc1nccc2c1ncn2C1OC(CO)C(O)C1O (configuration not stated)
inactive: [1] 104 % of control | [2] 95 % of control

N#CCCN(CCC#N)C(=O)Cl
inactive: dose: 100.0 mg/kg/injection, schedule: Q01DX001 (sc), vehicle: olive oil, sesame oil, peanut oil 97 % of control | dose: 200.0 mg/kg/injection, schedule: Q01DX001 (sc), vehicle: olive oil, sesame oil, peanut oil 97 % of control | dose: 400.0 mg/kg/injection, schedule: Q01DX001 (sc), vehicle: olive oil, sesame oil, peanut oil 98 % of control

Cn1c[n+](C2OC(CO)C(O)C2O)c2nc(N)[nH]c(=O)c21 (configuration not stated)
inactive: [3] 92 % of control | [4] 92 % of control | [5] 97 % of control | [6] 93 % of control

O=C(N/N=C/c1ccc(-c2ccccc2)cc1)Nc1ccccc1
inactive: [7] 92 % of control | [8] 92 % of control | [9] 96 % of control | [10] 100 % of control | [11] 93 % of control

COC(=O)C1OC(n2cnc3c(N)ncnc32)C(OC(C)=O)C(OC(C)=O)C1OC(C)=O (configuration not stated)
inactive: [3] 100 % of control | [4] 92 % of control | [5] 100 % of control | [6] 92 % of control

CCC(C)(CC=C(C)C)c1ccncc1 (configuration not stated)
inactive: [1] 98 % of control

C1CCC2CC(NC3=NCCO3)CCC2C1 (configuration not stated)
inactive: dose: 0.19 mg/kg/injection, schedule: Q01DX009 (ip), vehicle: Klucel (hydroxypropylcellulose) (HPC) 96 % of control | dose: 0.39 mg/kg/injection, schedule: Q01DX009 (ip), vehicle: Klucel (hydroxypropylcellulose) (HPC) 98 % of control | dose: 0.78 mg/kg/injection, schedule: Q01DX009 (ip), vehicle: Klucel (hydroxypropylcellulose) (HPC) 98 % of control and 113 % of control

OC(c1nc2ccccc2[nH]1)C(O)c1nc2ccccc2[nH]1 (configuration not stated)
inactive: [12] 102 % of control | [13] 109 % of control | dose: 300.0 mg/kg/injection, schedule: Q01DX001 (ip), vehicle: saline 102 % of control

O=C(Nc1ccccc1Cl)Nc1cc(Cl)ccc1Cl
inactive: dose: 100.0 mg/kg/injection, schedule: Q04DX002 (ip), vehicle: saline + alcohol 100 % of control | dose: 200.0 mg/kg/injection, schedule: Q04DX002 (ip), vehicle: saline + alcohol 100 % of control | dose: 400.0 mg/kg/injection, schedule: Q04DX002 (ip), vehicle: saline + alcohol 92 % of control

CC(C)(O)CNC1CCCCC1
inactive: [12] 108 % of control

Cc1c(Cl)cccc1NS(=O)(=O)c1cccc([N+](=O)[O-])c1
inactive: [7] 90 % of control | [9] 87 % of control

CCC(CCC(C)C1CCC2C3CC=C4CC(OC(=O)Nc5ccccc5)CCC4(C)C3CCC12C)C(C)C (configuration not stated)
inactive: dose: 100.0 mg/kg/injection, schedule: Q04DX002 (ip), vehicle: saline with Tween-80 87 % of control | dose: 200.0 mg/kg/injection, schedule: Q04DX002 (ip), vehicle: saline with Tween-80 87 % of control | dose: 400.0 mg/kg/injection, schedule: Q04DX002 (ip), vehicle: saline with Tween-80 94 % of control

Cc1ccc(C(=O)CC(Sc2ccccc2N)c2c(Cl)cccc2Cl)c(C)c1 (configuration not stated)
inactive: dose: 50.0 mg/kg/injection, schedule: Q01DX009 (ip), vehicle: Klucel (hydroxypropylcellulose) (HPC) 94 % of control | dose: 100.0 mg/kg/injection, schedule: Q01DX005 (ip), vehicle: Klucel (hydroxypropylcellulose) (HPC) 108 % of control | [14] 94 % of control | dose: 100.0 mg/kg/injection, schedule: Q04DX002 (ip), vehicle: Klucel (hydroxypropylcellulose) (HPC) 98 % of control | dose: 200.0 mg/kg/injection, schedule: Q01DX005 (ip), vehicle: Klucel (hydroxypropylcellulose) (HPC) 89 % of control | [15] 91 % of control | dose: 200.0 mg/kg/injection, schedule: Q04DX002 (ip), vehicle: Klucel (hydroxypropylcellulose) (HPC) 109 % of control | dose: 400.0 mg/kg/injection, schedule: Q04DX002 (ip), vehicle: Klucel (hydroxypropylcellulose) (HPC) 117 % of control

CC(=O)OC1CCC2(C)C(CCC3C4CCC(C(C)OC(C)=O)C4NC(=O)CC32)C1 (configuration not stated)
inactive: dose: 75.0 mg/kg/injection, schedule: Q01DX001 (ip), vehicle: other 104 % of control | dose: 150.0 mg/kg/injection, schedule: Q01DX001 (ip), vehicle: other 101 % of control | dose: 300.0 mg/kg/injection, schedule: Q01DX001 (ip), vehicle: other 93 % of control

COc1ccc(OC)c(CCC(O)CCc2cc(OC)ccc2OC)c1
inactive: [7] 99 % of control | [8] 96 % of control | [9] 90 % of control | [10] 98 % of control | dose: 400.0 mg/kg/injection, schedule: Q01DX009 (ip), vehicle: saline with Tween-80 94 % of control | [11] 94 % of control

COC(=O)c1cc(=O)[nH]c2c1c(=O)n(C)c(=O)n2C
inactive: [16] 95 % of control | [15] 97 % of control | [17] 90 % of control | [18] 97 % of control | [19] 94 % of control

N#Cc1ccc2cn[nH]c2c1
inactive: [8] 92 % of control | [10] 101 % of control | [11] 99 % of control

COc1ccc(/C=C(\SS/C(=C/c2ccc(OC)cc2)C(=O)O)C(=O)O)cc1
inactive: [1] 89 % of control | [2] 94 % of control

CCC(=O)Nc1cc(C)ccc1Cl
inactive: [14] 101 % of control | [15] 103 % of control | [18] 103 % of control

Nc1ncnc2c1ncn2C1OCC(CO)C1O (configuration not stated)
inactive: dose: 33.0 mg/kg/injection, schedule: Q01DX001 (ip), vehicle: carboxymethylcellulose (CMC) 97 % of control | dose: 66.5 mg/kg/injection, schedule: Q01DX001 (ip), vehicle: carboxymethylcellulose (CMC) 108 % of control | [1] 107 % of control | dose: 133.0 mg/kg/injection, schedule: Q01DX001 (ip), vehicle: carboxymethylcellulose (CMC) 97 % of control | [2] 101 % of control | [20] 107 % of control

CC1(C)c2ccccc2N(CCCN2CCCCC2)c2ccccc21
inactive: dose: 9.0 mg/kg/injection, schedule: Q01DX001 (ip), vehicle: water 101 % of control | dose: 18.0 mg/kg/injection, schedule: Q01DX001 (ip), vehicle: water 93 % of control | dose: 36.0 mg/kg/injection, schedule: Q01DX001 (ip), vehicle: water 101 % of control | dose: 50.0 mg/kg/injection, schedule: Q01DX001 (ip), vehicle: water 91 % of control | dose: 100.0 mg/kg/injection, schedule: Q01DX001 (ip), vehicle: water 91 % of control | dose: 200.0 mg/kg/injection, schedule: Q01DX001 (ip), vehicle: water 100 % of control

C=CCCC1(Cc2ccccc2)C(=O)NC(=O)NC1=O
inactive: [12] 97 % of control | [13] 97 % of control

CC(=O)Nc1cc2cc(Br)ccc2oc1=O
inactive: [14] 95 % of control | [15] 93 % of control

CCNCC(=O)N(N=O)C(=O)OCC
inactive: dose: 75.0 mg/kg/injection, schedule: Q01DX001 (ip), vehicle: steriod suspending solution 110 % of control | dose: 150.0 mg/kg/injection, schedule: Q01DX001 (ip), vehicle: steriod suspending solution 102 % of control

C(=C\c1ccccc1)/Nc1ccccc1
inactive: [16] 97 % of control | [17] 96 % of control | [19] 92 % of control

c1ccc(P(CCP(c2ccccc2)c2ccccc2)CCP(c2ccccc2)c2ccccc2)cc1
inactive: [16] 91 % of control | [17] 96 % of control | [19] 96 % of control

O=C(O)c1cc(O)c2c(c1)C(C1c3cc(C(=O)O)cc(O)c3C(=O)c3c(OC4OC(CO)C(O)C(O)C4O)cccc31)c1cccc(OC3OC(CO)C(O)C(O)C3O)c1C2=O (configuration not stated)
inactive: [1] 98 % of control and 101 % of control | [2] 97 % of control | [20] 103 % of control and 106 % of control

CCOC(=O)c1cnc(SC)nc1Nc1cccc(C)c1
inactive: [8] 86 % of control | [10] 91 % of control | [11] 86 % of control

O=[N+]([O-])c1ccc2c(N=Nc3ccc4ccccc4c3O)c(O)cc(S(=O)(=O)O)c2c1
inactive: dose: 50.0 mg/kg/injection, schedule: Q04DX003 (ip), vehicle: carboxymethylcellulose (CMC) 94 % of control | dose: 100.0 mg/kg/injection, schedule: Q04DX003 (ip), vehicle: carboxymethylcellulose (CMC) 93 % of control | dose: 200.0 mg/kg/injection, schedule: Q04DX003 (ip), vehicle: carboxymethylcellulose (CMC) 102 % of control
